Values joined by “and” are separate entries in the source; they are usually repeats but may differ in a detail not shown here. Identical values can stand only once. Inconclusive results and toxic doses are left out. No stated cut-off is given here; in the data, active means T/C of 150% or more; inactive means T/C below 125%.
Tested on: L1210 leukemia ip in BDF1 mice, survival T/C
Test: NCI In Vivo Anticancer Drug Screen. Data for tumor model L1210 Leukemia (intraperitoneal) in B6D2F1 (BDF1) mice
Settings: endpoint: mean survival time, higher = longer survival
Procedure, shortened: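 Transplantable tumor model; survival measured in treated vs vehicle control mice. Value = treated/control.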

[1] = dose: 100.0 mg/kg/injection, schedule: Q01DX009 (ip), vehicle: saline with Tween-80
[2] = dose: 200.0 mg/kg/injection, schedule: Q01DX009 (ip), vehicle: saline with Tween-80
[3] = dose: 400.0 mg/kg/injection, schedule: Q01DX009 (ip), vehicle: saline with Tween-80
[4] = dose: 100.0 mg/kg/injection, schedule: Q04DX002 (ip), vehicle: Klucel (hydroxypropylcellulose) (HPC)
[5] = dose: 200.0 mg/kg/injection, schedule: Q04DX002 (ip), vehicle: Klucel (hydroxypropylcellulose) (HPC)
[6] = dose: 100.0 mg/kg/injection, schedule: Q04DX003 (ip), vehicle: saline with Tween-80
[7] = dose: 200.0 mg/kg/injection, schedule: Q04DX003 (ip), vehicle: saline with Tween-80
[8] = dose: 100.0 mg/kg/injection, schedule: Q04DX003 (ip), vehicle: saline
[9] = dose: 200.0 mg/kg/injection, schedule: Q04DX003 (ip), vehicle: saline
[10] = dose: 50.0 mg/kg/injection, schedule: Q01DX009 (ip), vehicle: saline with Tween-80
[11] = dose: 100.0 mg/kg/injection, schedule: Q04DX002 (ip), vehicle: saline with Tween-80
[12] = dose: 100.0 mg/kg/injection, schedule: Q01DX001 (ip), vehicle: saline
[13] = dose: 200.0 mg/kg/injection, schedule: Q01DX001 (ip), vehicle: saline
[14] = dose: 400.0 mg/kg/injection, schedule: Q04DX003 (ip), vehicle: saline
[15] = dose: 100.0 mg/kg/injection, schedule: Q01DX009 (ip), vehicle: Klucel (hydroxypropylcellulose) (HPC)
[16] = dose: 100.0 mg/kg/injection, schedule: Q04DX003 (ip), vehicle: Klucel (hydroxypropylcellulose) (HPC)
[17] = dose: 200.0 mg/kg/injection, schedule: Q01DX009 (ip), vehicle: Klucel (hydroxypropylcellulose) (HPC)
[18] = dose: 200.0 mg/kg/injection, schedule: Q04DX003 (ip), vehicle: Klucel (hydroxypropylcellulose) (HPC)
[19] = dose: 400.0 mg/kg/injection, schedule: Q01DX009 (ip), vehicle: Klucel (hydroxypropylcellulose) (HPC)
[20] = dose: 400.0 mg/kg/injection, schedule: Q04DX003 (ip), vehicle: Klucel (hydroxypropylcellulose) (HPC)
[21] = dose: 75.0 mg/kg/injection, schedule: Q01DX001 (ip), vehicle: carboxymethylcellulose (CMC)
[22] = dose: 150.0 mg/kg/injection, schedule: Q01DX001 (ip), vehicle: carboxymethylcellulose (CMC)
[23] = dose: 300.0 mg/kg/injection, schedule: Q01DX001 (ip), vehicle: carboxymethylcellulose (CMC)
[24] = dose: 100.0 mg/kg/injection, schedule: Q01DX001 (ip), vehicle: carboxymethylcellulose (CMC)
[25] = dose: 200.0 mg/kg/injection, schedule: Q01DX001 (ip), vehicle: carboxymethylcellulose (CMC)
[26] = dose: 25.0 mg/kg/injection, schedule: Q01DX009 (ip), vehicle: saline
[27] = dose: 50.0 mg/kg/injection, schedule: Q01DX009 (ip), vehicle: saline

Measured: T/C

Cc1cccc(Cl)c1NC(=O)Nc1cccc(O)c1
inactive: [1] 100 % of control | [2] 100 % of control | [3] 97 % of control

CCOC(=O)c1c(-c2ccc([N+](=O)[O-])cc2)c(/C=N\O)n(-c2ccccc2)c1C
inactive: [4] 87 % of control | [5] 94 % of control

O=C(CCl)NC(CO)C(=O)O (stereo not drawn)
inactive: [1] 89 % of control | [6] 103 % of control | [2] 87 % of control | [7] 94 % of control

O=c1oc2ccc(F)cc2c2ccccc12
inactive: dose: 100.0 mg/kg/injection, schedule: Q01DX001 (ip), vehicle: Klucel (hydroxypropylcellulose) (HPC) 92 % of control | dose: 200.0 mg/kg/injection, schedule: Q01DX001 (ip), vehicle: Klucel (hydroxypropylcellulose) (HPC) 103 % of control | dose: 400.0 mg/kg/injection, schedule: Q01DX001 (ip), vehicle: Klucel (hydroxypropylcellulose) (HPC) 90 % of control

CN(C)/N=C\c1cccnc1
inactive: [8] 112 % of control | [9] 86 % of control

COc1cc(C=Nc2ccc(-c3csc(COc4ccccc4)n3)c(Cl)c2)ccc1N(CCCl)CCCl
inactive: dose: 5.0 mg/kg/injection, schedule: Q01DX015 (ip), vehicle: carboxymethylcellulose (CMC) 111 % of control | dose: 10.0 mg/kg/injection, schedule: Q01DX015 (ip), vehicle: carboxymethylcellulose (CMC) 113 % of control | dose: 20.0 mg/kg/injection, schedule: Q01DX015 (ip), vehicle: carboxymethylcellulose (CMC) 104 % of control | dose: 44.0 mg/kg/injection, schedule: Q01DX015 (ip), vehicle: carboxymethylcellulose (CMC) 97 % of control | dose: 200.0 mg/kg/injection, schedule: Q01DX001 (sc), vehicle: carboxymethylcellulose (CMC) 118 % of control

CCCN(CCC)CC(C)(C)CO
inactive: [10] 96 % of control | [1] 101 % of control

C=CCN(CC=C)C(=O)Nc1ccc(Cl)c(C(F)(F)F)c1
inactive: [1] 97 % of control | [2] 105 % of control | [3] 110 % of control

CCCCCCCCCCCCCCCC[N+](C)(C)C1=C([O-])C(=O)N(c2ccc(Cl)c(Cl)c2)C1=O
inactive: dose: 50.0 mg/kg/injection, schedule: Q04DX002 (ip), vehicle: saline with Tween-80 94 % of control | [11] 94 % of control

NC(CSSCC(NC(=O)C(F)(F)F)C(=O)O)C(=O)O (stereo not drawn)
inactive: dose: 50.0 mg/kg/injection, schedule: Q01DX001 (ip), vehicle: saline 96 % of control | [12] 98 % of control | [13] 93 % of control

c1ccc(N2CCN(c3ccccc3)C2C2CO2)cc1 (stereo not drawn)
inactive: [8] 95 % of control | [9] 97 % of control | [14] 98 % of control

O=C1C=CC2C=CC1C(C(=O)O)C2C(=O)O (stereo not drawn) (tested in a mixture with another compound)
inactive: dose: 100.0 mg/kg/injection, schedule: Q01DX001 (ip), vehicle: saline with Tween-80 95 % of control | dose: 200.0 mg/kg/injection, schedule: Q01DX001 (ip), vehicle: saline with Tween-80 90 % of control | dose: 400.0 mg/kg/injection, schedule: Q01DX001 (ip), vehicle: saline with Tween-80 92 % of control

CCOC(=O)/C(C)=N\Nc1ccc(Cl)cc1
inactive: [15] 106 % of control | [16] 102 % of control | [17] 98 % of control | [18] 98 % of control | [19] 98 % of control | [20] 99 % of control

O=C(NCCCOc1ccc([N+](=O)[O-])cc1Cl)Nc1ccc(S(=O)(=O)F)cc1
inactive: [21] 98 % of control | [8] 103 % of control | [22] 89 % of control | [9] 103 % of control | [23] 87 % of control | [14] 105 % of control

C1=CC2OC1c1ccccc12
inactive: dose: 50.0 mg/kg/injection, schedule: Q01DX001 (ip), vehicle: carboxymethylcellulose (CMC) 95 % of control | [24] 92 % of control | [25] 106 % of control | dose: 400.0 mg/kg/injection, schedule: Q01DX001 (ip), vehicle: carboxymethylcellulose (CMC) 97 % of control

CN1CCN(Cc2c(O)ccc3c4c(c(=O)oc23)CCCC4)CC1
inactive: [24] 98 % of control | [25] 93 % of control

COc1ccc(OC)c(NC(=S)NC(=O)c2cccc([N+](=O)[O-])c2)c1
inactive: [15] 106 % of control | [16] 120 % of control | [17] 106 % of control | [18] 100 % of control | [19] 94 % of control | [20] 97 % of control

Cc1cccc(Cl)c1OCC(=O)Nc1ccc(Cl)cc1
inactive: [11] 90 % of control | dose: 200.0 mg/kg/injection, schedule: Q04DX002 (ip), vehicle: saline with Tween-80 93 % of control | dose: 400.0 mg/kg/injection, schedule: Q04DX002 (ip), vehicle: saline with Tween-80 93 % of control

CC(CC(=O)O)Nc1ccc(Cl)c(Cl)c1 (stereo not drawn)
inactive: dose: 25.0 mg/kg/injection, schedule: Q01DX009 (ip), vehicle: saline with Tween-80 100 % of control | [10] 102 % of control | [1] 94 % of control | [6] 107 % of control | [7] 96 % of control

Cc1cc(Cl)ccc1OCC(=O)NCC(=O)O
inactive: [4] 90 % of control | [5] 97 % of control | dose: 400.0 mg/kg/injection, schedule: Q04DX002 (ip), vehicle: Klucel (hydroxypropylcellulose) (HPC) 105 % of control

c1ccc2c(c1)C[N+]1(Cc3ccccc3-2)CC12CCCCC2
inactive: dose: 12.0 mg/kg/injection, schedule: Q01DX009 (ip), vehicle: saline 110 % of control | [26] 104 % of control | [27] 100 % of control

O=C(O)C(=C(c1ccccc1)c1ccccc1)c1cccc2ccccc12
inactive: dose: 50.0 mg/kg/injection, schedule: Q04DX002 (ip), vehicle: Klucel (hydroxypropylcellulose) (HPC) 98 % of control | [15] 101 % of control | [4] 100 % of control | [5] 100 % of control

CCCCCCCCCC(=O)N1CCOCC1
inactive: [26] 98 % of control | dose: 25.0 mg/kg/injection, schedule: Q04DX003 (ip), vehicle: saline 97 % of control | [27] 113 % of control | dose: 50.0 mg/kg/injection, schedule: Q04DX003 (ip), vehicle: saline 101 % of control | [8] 94 % of control and 89 % of control

O=C(O)c1nc[nH]c1C(=O)O
inactive: dose: 100.0 mg/kg/injection, schedule: Q01DX009 (ip), vehicle: saline 102 % of control | [16] 93 % of control | dose: 200.0 mg/kg/injection, schedule: Q01DX009 (ip), vehicle: saline 104 % of control | [18] 96 % of control | dose: 400.0 mg/kg/injection, schedule: Q01DX009 (ip), vehicle: saline 94 % of control | [20] 88 % of control

O=C(Nc1ccc(C(=O)CCl)cc1)Nc1ccc(C(=O)CCl)cc1
inactive: dose: 100.0 mg/kg/injection, schedule: Q01DX005 (ip), vehicle: saline 100 % of control | [8] 101 % of control | dose: 200.0 mg/kg/injection, schedule: Q01DX005 (ip), vehicle: saline 102 % of control | [9] 104 % of control | dose: 400.0 mg/kg/injection, schedule: Q01DX005 (ip), vehicle: saline 103 % of control | [14] 93 % of control

Cc1nsc(N)n1
inactive: dose: 12.5 mg/kg/injection, schedule: Q01DX009 (ip), vehicle: saline 108 % of control | [26] 105 % of control | [27] 100 % of control | [12] 92 % of control | [16] 102 % of control | [13] 100 % of control | [18] 113 % of control | dose: 400.0 mg/kg/injection, schedule: Q01DX001 (ip), vehicle: saline 101 % of control | [20] 104 % of control

Nc1cc2c(cc1Br)-c1c(C(=O)O)cccc1C2=O
inactive: [21] 101 % of control | [22] 95 % of control | [23] 98 % of control

COc1cc([N+](=O)[O-])c2c(ccc[n+]2C)c1OC
inactive: [6] 98 % of control | [7] 89 % of control

— PubChem BioAssay AID248 (DTP/NCI, 2004)
